The test relates to HCV replicon cells. The test can be described thus: Cell-based HCV replicon assay. As to conditions: Hepatitis C virus, 72 h; replicon RNA level by real time PCR (Taqman), cells harvested on day 3; EC50 = concentration to achieve ΔCT=1 over baseline. As to the method:
To measure cell-based anti-HCV activity of selected compounds of the present invention, replicon cells were seeded at 5000 cells/well in 96-well collagen I-coated Nunc plates in the presence of the test compound. Various concentrations of test compound, typically in 10 serial 2-fold dilutions, were added to the assay mixture, with the starting concentration ranging from 250 μM to 1 μM. The final concentration of DMSO was 0.5%, fetal bovine serum was 5%, in the assay media. Cells were harvested on day 3 by the addition of 1× cell lysis buffer (Ambion cat #8721). The replicon RNA level was measured using real time PCR (Taqman assay). The amplicon was located in 5B. The PCR primers were: 5B.2F, ATGGACAGGCGCCCTGA; 5B.2R, […]; the probe sequence was FAM-labeled CACGCCATGCGCTGCGG. GAPDH RNA was used as endogenous control and was amplified in the same reaction as NS5B (multiplex PCR) using primers and VIC-labeled probe recommended by the manufacturer (PE Applied Biosystem). […] Alternatively, to quantitate the absolute amount of replicon RNA, a standard curve was established by including serially diluted T7 transcripts of replicon RNA in the Taqman assay. […]
In general terms: Replicon systems follow genome replication, usually without infectious particles.

Where only a bound is given, the exact number is not on record here.

As to `COC(=O)N[C@@H](C(=O)N1CCC[C@H]1c1nc2ccc3cc(-c4ccc5c(ccc6nc([C@@H]7CCCN7C(=O)[C@H](NC(=O)OC)C(C)C)[nH]c65)n4)ccc3c2[nH]1)C(C)C` [Compound 1], the EC50 was less than 1 nM.

The values are drawn from patent US20120276047A1, “FUSED TRICYCLIC COMPOUNDS AND DERIVATIVES THEREOF USEFUL FOR THE TREATMENT OF VIRAL DISEASES” (priority 2009, published 2012).
